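The compound was tested at five concentrations on cells cultured in 96-well plates, with a 48-hour exposure period. The concentration for 50% growth inhibition is given as GI50.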 Calls of active or inactive are those of the source. Cut-off read from the data, not from the text of the source: active = GI50 up to about 1.1 µM and inactive = higher.
Assays:
Test in all cases: NCI-60 cell line screen, 48 h
HCT-15 = test system: HCT-15
K562 = test system: K562
UACC-62 = test system: UACC-62
SF-295 = test system: SF-295
LOX IMVI = test system: LOX IMVI
CCRF-CEM = test system: CCRF-CEM
NCI-H23 = test system: NCI-H23
OVCAR-5 = test system: OVCAR-5
786-0 = test system: 786-0
COLO 205 = test system: COLO 205
MDA-N = test system: MDA-N
HL-60 = test system: HL-60
U-251 = test system: U-251
SK-OV-3 = test system: SK-OV-3
M14 = test system: M14
SNB-19 = test system: SNB-19
HOP-62 = test system: HOP-62
DU-145 = test system: DU-145
OVCAR-3 = test system: OVCAR-3
HOP-92 = test system: HOP-92

CCC(C)N1CN(c2ccccc2)C2(CCN(CCCSc3ccc(F)cc3)CC2)C1=O (centres undefined)
GI50 (HCT-15): 1.75 µM
GI50 (K562): 2.22 µM (inactive)
GI50 (UACC-62): 5.47 µM (inactive)
GI50 (SF-295): 2.35 µM (inactive)
GI50 (LOX IMVI): 3.05 µM (inactive)
GI50 (CCRF-CEM): 2.44 µM (inactive)
GI50 (NCI-H23): 4.01 µM (inactive)
GI50 (OVCAR-5): 2.1 µM (inactive)
GI50 (786-0): 2.89 µM (inactive)
GI50 (COLO 205): 1.72 µM (inactive)
GI50 (MDA-N): 2.9 µM (inactive)
GI50 (HL-60): 3.79 µM (inactive)
GI50 (U-251): 3.72 µM (inactive)
GI50 (SK-OV-3): 4.92 µM (inactive)
GI50 (M14): 2.34 µM (inactive)
GI50 (SNB-19): 5.52 µM (inactive)
GI50 (HOP-62): 2.11 µM (inactive)
GI50 (DU-145): 3.03 µM (inactive)
GI50 (OVCAR-3): 2.33 µM (inactive)

COc1nc2c(c(=O)n1C)N[C@@H]1[C@@H](O)[C@H](O)CO[C@@H]1N2
GI50 (HCT-15): > 100 µM
GI50 (K562): > 100 µM (inactive)
GI50 (UACC-62): > 100 µM (inactive)
GI50 (SF-295): > 100 µM (inactive)
GI50 (LOX IMVI): > 100 µM (inactive)
GI50 (CCRF-CEM): > 100 µM (inactive)
GI50 (OVCAR-5): > 100 µM (inactive)
GI50 (786-0): > 100 µM (inactive)
GI50 (COLO 205): > 100 µM (inactive)
GI50 (MDA-N): > 100 µM (inactive)
GI50 (HL-60): > 100 µM (inactive)
GI50 (U-251): > 100 µM (inactive)
GI50 (SK-OV-3): > 100 µM (inactive)
GI50 (M14): > 100 µM (inactive)
GI50 (SNB-19): > 100 µM (inactive)
GI50 (HOP-62): > 100 µM (inactive)
GI50 (DU-145): > 100 µM (inactive)
GI50 (OVCAR-3): > 100 µM (inactive)

CN(C)C(=O)Oc1ccc(C(=S)Nc2ccccc2)cc1
GI50 (HCT-15): 97.5 µM
GI50 (K562): 24.8 µM (inactive)
GI50 (UACC-62): 35.9 µM (inactive)
GI50 (SF-295): 87.7 µM (inactive)
GI50 (LOX IMVI): 60.1 µM (inactive)
GI50 (CCRF-CEM): 26.6 µM (inactive)
GI50 (NCI-H23): 28.6 µM (inactive)
GI50 (OVCAR-5): > 100 µM (inactive)
GI50 (786-0): > 100 µM (inactive)
GI50 (COLO 205): 65.2 µM (inactive)
GI50 (MDA-N): 37.4 µM (inactive)
GI50 (HL-60): 21.6 µM (inactive)
GI50 (U-251): > 100 µM (inactive)
GI50 (SK-OV-3): > 100 µM (inactive)
GI50 (M14): 41.2 µM (inactive)
GI50 (SNB-19): > 100 µM (inactive)
GI50 (HOP-62): > 100 µM (inactive)
GI50 (DU-145): > 100 µM (inactive)
GI50 (OVCAR-3): 86.5 µM (inactive)

CCN1CCN=C2c3cc(OC)ccc3Nc3c([N+](=O)[O-])ccc1c32
GI50 (HCT-15): 1.21 µM
GI50 (K562): 0.473 µM (active)
GI50 (UACC-62): 1.39 µM (inactive)
GI50 (SF-295): 1.61 µM (inactive)
GI50 (CCRF-CEM): 0.571 µM (active)
GI50 (NCI-H23): 1.35 µM (inactive)
GI50 (786-0): 0.512 µM (active)
GI50 (COLO 205): 0.668 µM (active)
GI50 (MDA-N): 0.839 µM (active)
GI50 (HL-60): 0.516 µM (active)
GI50 (HOP-92): 0.622 µM (active)
GI50 (SK-OV-3): 2.43 µM (inactive)
GI50 (M14): 1 µM (active)
GI50 (HOP-62): 0.634 µM (active)
GI50 (DU-145): 2.72 µM (inactive)

CCCCC/C=C\C=C\CCCCCCCCC(=O)OC
GI50 (HCT-15): > 100 µM
GI50 (K562): > 100 µM (inactive)
GI50 (SF-295): > 100 µM (inactive)
GI50 (LOX IMVI): 29.8 µM (inactive)
GI50 (NCI-H23): > 100 µM (inactive)
GI50 (OVCAR-5): > 100 µM (inactive)
GI50 (786-0): > 100 µM (inactive)
GI50 (COLO 205): > 100 µM (inactive)
GI50 (MDA-N): > 100 µM (inactive)
GI50 (HL-60): > 100 µM (inactive)
GI50 (U-251): > 100 µM (inactive)
GI50 (HOP-92): > 100 µM (inactive)
GI50 (SK-OV-3): > 100 µM (inactive)
GI50 (M14): > 100 µM (inactive)
GI50 (SNB-19): > 100 µM (inactive)
GI50 (HOP-62): > 100 µM (inactive)
GI50 (DU-145): > 100 µM (inactive)
GI50 (OVCAR-3): > 100 µM (inactive)

CC(=O)Nc1nc(O)c2nc(C=O)cnc2n1
GI50 (HCT-15): > 100 µM
GI50 (K562): > 100 µM (inactive)
GI50 (UACC-62): > 100 µM (inactive)
GI50 (SF-295): > 100 µM (inactive)
GI50 (LOX IMVI): > 100 µM (inactive)
GI50 (NCI-H23): > 100 µM (inactive)
GI50 (OVCAR-5): > 100 µM (inactive)
GI50 (786-0): > 100 µM (inactive)
GI50 (COLO 205): > 100 µM (inactive)
GI50 (MDA-N): > 100 µM (inactive)
GI50 (HL-60): > 100 µM (inactive)
GI50 (U-251): > 100 µM (inactive)
GI50 (HOP-92): > 100 µM (inactive)
GI50 (SK-OV-3): > 100 µM (inactive)
GI50 (M14): > 100 µM (inactive)
GI50 (SNB-19): > 100 µM (inactive)
GI50 (HOP-62): > 100 µM (inactive)
GI50 (DU-145): > 100 µM (inactive)
GI50 (OVCAR-3): > 100 µM (inactive)

O=C([O-])C1([n+]2c(-c3ccccc3)cc(-c3ccccc3)cc2-c2ccccc2)CC1
GI50 (HCT-15): > 100 µM
GI50 (K562): 27.5 µM (inactive)
GI50 (UACC-62): 21.5 µM (inactive)
GI50 (SF-295): > 100 µM (inactive)
GI50 (LOX IMVI): 82.6 µM (inactive)
GI50 (CCRF-CEM): 48.2 µM (inactive)
GI50 (NCI-H23): 86.9 µM (inactive)
GI50 (OVCAR-5): > 100 µM (inactive)
GI50 (786-0): 57.1 µM (inactive)
GI50 (MDA-N): 53.8 µM (inactive)
GI50 (HL-60): 21.8 µM (inactive)
GI50 (U-251): 28.7 µM (inactive)
GI50 (HOP-92): 19.8 µM (inactive)
GI50 (M14): 43.6 µM (inactive)
GI50 (SNB-19): 43.2 µM (inactive)
GI50 (HOP-62): > 100 µM (inactive)
GI50 (DU-145): > 100 µM (inactive)
GI50 (OVCAR-3): 38.6 µM (inactive)

CCOC(=O)C(=Cc1[nH]c2ccccc2c1-c1c[nH]c2ccccc12)C(=O)OCC
GI50 (HCT-15): 10.1 µM
GI50 (K562): 4.12 µM (inactive)
GI50 (UACC-62): 4.88 µM (inactive)
GI50 (SF-295): 12.1 µM (inactive)
GI50 (LOX IMVI): 12.7 µM (inactive)
GI50 (NCI-H23): 15.3 µM (inactive)
GI50 (OVCAR-5): 15.1 µM (inactive)
GI50 (786-0): 2.75 µM (inactive)
GI50 (COLO 205): 16.2 µM (inactive)
GI50 (MDA-N): 13.3 µM (inactive)
GI50 (U-251): 11.7 µM (inactive)
GI50 (HOP-92): 11 µM (inactive)
GI50 (SK-OV-3): 20.3 µM (inactive)
GI50 (M14): 10 µM (inactive)
GI50 (SNB-19): 14.2 µM (inactive)
GI50 (HOP-62): 14.2 µM (inactive)
GI50 (DU-145): 14.1 µM (inactive)
GI50 (OVCAR-3): 9.33 µM (inactive)
